# According to patent US12403144B2, “HECT E3 ligase inhibitors and uses thereof” (IFOM FONDAZIONE ISTITUTO FIRC DI ONCOLOGIA MOLECOLARE, priority 2019, dated 2025):
# Structures can show the parent of a compound that is named as a salt.
# Molecular target: T1, untagged HECT of NEDD4 wild-type (WT) (E3 ligase) (Homo sapiens, UniProt P46934)
# T1 construct: untagged HECT of NEDD4 wild-type (WT) (E3 ligase); made in house
# T1 sequence (P46934 519-900 isoform P46934-4 limits assumed): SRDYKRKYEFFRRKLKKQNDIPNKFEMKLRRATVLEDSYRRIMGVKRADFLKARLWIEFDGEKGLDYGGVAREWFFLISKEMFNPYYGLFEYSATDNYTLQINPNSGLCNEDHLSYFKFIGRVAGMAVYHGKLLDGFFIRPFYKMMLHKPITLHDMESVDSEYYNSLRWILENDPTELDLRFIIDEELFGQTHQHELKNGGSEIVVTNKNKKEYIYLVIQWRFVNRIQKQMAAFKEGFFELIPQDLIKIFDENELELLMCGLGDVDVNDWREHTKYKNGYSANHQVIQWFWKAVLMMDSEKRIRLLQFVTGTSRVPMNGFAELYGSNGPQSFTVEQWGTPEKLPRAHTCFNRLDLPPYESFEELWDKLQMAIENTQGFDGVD
# Assay: In vitro ubiquitination assay TR-FRET based (self-ubiquitination of NEDD4)
# Assay type: biochemical
# Conditions: at 11 μM; pre-incubated for 1 hour; AUC of 120 minutes kinetic; read-out: percentages of inhibition (NEDD4)
# In short: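 Mix of E1, His-UBE2D3 and untagged NEDD4 HECT (final 30, 350, 50 nM) with Eu-cryptate/Cy5/unlabelled ubiquitin in pH 7.6 Tris buffer, compounds (100–0.005 μM dilution series) pre-incubated 1 h, then started with ATP. 665/620 nm TR-FRET followed 120 min; % inhibition from AUC versus DMSO, no-ATP background.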
row,Structure (SMILES),inhibition at 11 µM [%]
1,"O=C(/C=C/CNCCCCN1c2ccccc2CCc2ccc(Cl)cc21)NOC1CCNCC1 [Compound 83, (E)-4-[4-(3-Chloro-10,11-dihydro-5H-dibenzo[b,f]azepin-5-yl)butylamino]-N-(4-piperidyloxy)-but-2-enamide dimaleate]",> 50
2,"CCOC(=O)/C=C/CNCCCCN1c2cc(Cl)ccc2C(=O)N(CCOCCOC)c2ccccc21 [Compound 86, Ethyl (E)-4-{[4-(3-chloro-10-[2-(2-methoxyethoxy)ethyl]-11-oxo-10,11-dihydro-5H-dibenzo[b,e][1,4]diazepin-5-yl)butyl]amino}but-2-enoate maleate]",> 50
3,"CCOC(=O)/C=C/CNCCCCN1c2cc(Cl)ccc2C(=O)N(CCOCCOCCOC)c2ccccc21 [Compound 87, Ethyl (E)-4-{[4-(3-chloro-10-[2-[2-(2-methoxyethoxy)ethoxy]ethyl]-11-oxo-10,11-dihydro-5H-dibenzo[b,e][1,4]diazepin-5-yl)butyl]amino}but-2-enoate maleate]",> 50
4,"C#CCOCCN1C(=O)c2ccc(Cl)cc2N(CCCCNC/C=C/C(=O)OCC)c2ccccc21 [Compound 88, Ethyl (E)-4-{[4-[3-chloro-10-[2-(prop-2-yn-1-yloxy)ethyl]-11-oxo-10,11-dihydro-5H-dibenzo[b,e][1,4]diazepin-5-yl)butyl]amino}but-2-enoate maleate]",> 50
5,"C#CCOCCOc1ccc2c(c1)CCc1ccc(Cl)cc1N2CCCCN(C)C/C=C/C(=O)OC [Compound 89, Methyl (E)-4-{4-[7-chloro-2-(2-prop-2-ynoxyethoxy)-10,11-dihydro-5H-dibenzo[b,f]azepin-5-yl]-butyl-methyl-amino}-but-2-enoate maleate]",> 50
6,"C#CCOCCOc1ccc2c(c1)CCc1ccc(Cl)cc1N2CCCCN(C)C/C=C/C#N [Compound 90, (E)-4-{4-[7-chloro-2-(2-prop-2-ynoxyethoxy)-10,11-dihydro-5H-dibenzo[b,f]azepin-5-yl]butyl-methyl-amino}but-2-enenitrile maleate]",> 50
7,"C#CCOC(=O)/C=C/CNCCCCN1c2ccccc2CCc2ccc(Cl)cc21 [Compound 91, Prop-2-yn-1-yl (E)-4-[4-(3-chloro-10,11-dihydro-5H-dibenzo[b,f]azepin-5-yl)butylamino]but-2-enoate maleate]",> 50
8,"C#CCOCCOC(=O)/C=C/CNCCCCN1c2ccccc2CCc2ccc(Cl)cc21 [Compound 92, 2-Prop-2-ynyloxy-ethyl (E)-4-[4-(3-chloro-10,11-dihydro-5H-dibenzo[b,f]azepin-5-yl)butylamino]but-2-enoate maleate]",> 50
9,"COCCOCCOC(=O)/C=C/CNCCCCN1c2ccccc2CCc2ccc(Cl)cc21 [Compound 93, 2-(2-Methoxy-ethoxy)-ethyl (E)-4-[4-(3-chloro-10,11-dihydro-dibenzo[b,f]azepin-5-yl)-butylamino]but-2-enoate maleate]",> 50
10,"CN(C/C=C/C(=O)OCCOCCOCCOCCOCCOCCNC(=O)CCCC[C@@H]1SC[C@@H]2NC(=O)N[C@@H]21)CCCCN1c2ccccc2CCc2ccc(Cl)cc21 [Compound 95, 2-(2-{2-[2-(2-{2-[5-((3aS,4S,6aR)-2-Oxo-hexahydro-thieno[3,4-d]imidazol-4-yl)-pentanoylamino]-ethoxy}-ethoxy)-ethoxy]-ethoxy}-ethoxy)-ethyl (E)-4-{[4-(3-chloro-10,11-dihydro-dibenzo[b,f]azepin-5-yl)-butyl]-methyl-amino}but-2-enoate]",> 50
11,"CN(C/C=C/C(=O)OCCOCCOCCOCCOCCOCCOCCOCCNC(=O)CCCC[C@@H]1SC[C@@H]2NC(=O)N[C@@H]21)CCCCN1c2ccccc2CCc2ccc(Cl)cc21 [Compound 96, 2-(2-{2-[2-(2-{2-[2-(2-[5-((3aS,4S,6aR)-2-Oxo-hexahydro-thieno[3,4-d]imidazol-4-yl)-pentanoylamino]-ethoxy)-ethoxy]-ethoxy}-ethoxy)-ethoxy]-ethoxy}-ethoxy)-ethyl (E)-4-{[4-(3-chloro-10,11-dihydro-dibenzo[b,f]azepin-5-yl)-butyl]-methyl-amino} but-2-enoate]",> 50
12,"CCOC(=O)/C=C/CNCCCCN1c2ccc(OCCOC)cc2CCc2ccc(Cl)cc21 [Compound 97, Ethyl (E)-4-{4-[7-Chloro-2-(2-methoxy-ethoxy)-10,11-dihydro-5H-dibenzo[b,f]azepin-5-yl]-butylamino}-but-2-enoate maleate]",> 50
13,"CCOC(=O)/C=C/CNCCCCN1c2ccc(OCCOCCOC)cc2CCc2ccc(Cl)cc21 [Compound 98, Ethyl (E)-4-(4-{7-chloro-2-[2-(2-methoxy-ethoxy)-ethoxy]-10,11-dihydro-5H-dibenzo[b,f]azepin-5-yl}-butylamino)-but-2-enoate maleate]",> 50
14,"CN(C/C=C/C#N)CCCCN1c2ccc(OCCOCc3cn(CCOCCOCCOCCNC(=O)CCCC[C@@H]4SC[C@@H]5NC(=O)N[C@@H]54)nn3)cc2CCc2ccc(Cl)cc21 [Compound 99, 5-((3aS,4S,6aR)-2-Oxo-hexahydro-thieno[3,4-d]imidazol-4-yl)-(2-{2-[2-(2-{4-[2-(7-chloro-5-{4-[((E)-3-cyano-allyl)-methyl-amino]-butyl}-10,11-dihydro-5H-dibenzo[b,f]azepin-2-yloxy)-ethoxymethyl]-[1,2,3]triazol-1-yl}-ethoxy)-ethoxy]-ethoxy}-ethyl)pentanamide]",> 50
15,"C#CCOc1ccc2c(c1)CCc1ccc(Cl)cc1N2CCCCNC/C=C/C(=O)OCC [Compound 100, Ethyl (E)-4-[4-(7-Chloro-2-prop-2-ynyloxy-10,11-dihydro-dibenzo[b,f]azepin-5-yl)-butylamino]-but-2-enoate maleate]",> 50
16,"CCOC(=O)/C=C/CNCCCCN1c2ccc(OCc3ccccc3)cc2CCc2ccc(Cl)cc21 [Compound 101, Ethyl (E)-4-[4-(2-benzyloxy-7-chloro-10,11-dihydro-dibenzo[b,f]azepin-5-yl)-butylamino]-but-2-enoate maleate]",< 30
17,"COCCOC(=O)/C=C/CNCCCCN1c2ccccc2CCc2ccc(Cl)cc21 [Compound 102, 2-methoxy-ethyl (E)-4-[4-(3-chloro-10,11-dihydro-dibenzo[b,f]azepin-5-yl)-butylamino]-but-2-enoate maleate]",> 50
